Converted amounts (≈) assume the structure as drawn. Where two headings read alike, the source gives them in different places.
Tests used:
DdlB from E.coli = DdlB from E.coli (Escherichia coli, UniProt P07862); test: D-Alanine-D-alanine ligase (DdlB) enzyme inhibition, malachite green method; type: biochemical; conditions: 37 °C, 30 min incubation, 5% DMSO
Procedure: The key enzyme involved in the peptidoglycan biosynthesis is D-alanine-D-alanine ligase (Ddl), making it an important target for drug discovery. Inhibition of DdlB as an essential enzyme in either Gram-positive or Gram-negative organisms leads to the loss of cell shape and integrity followed by bacterial death. The synthesized derivatives 4(a–f) and 6(a–f) were tested for their inhibitory activity on DdlB from E.coli. The results are presented as IC50 values.
The D-Ala-adding activity of DdlB ligase was monitored by the detection of orthophosphate generated during the reaction based on the colorimetric malachite green method described by Walsh et al.. […] All the compounds were soluble in the assay mixture containing 5% DMSO. After 30 min of incubation, 100 µL Biomol reagent was added. After 5 min, absorbance was read at 650 nm. Residual activity was calculated with respect to a similar assay without inhibitor. To exclude possible non-specific (promiscuous) inhibitors, representative compounds 4(a–f) and 6(a–f) were also tested in the presence of Tween (0.003%), Triton X-114 (0.005%), and SDS (420 µM), as described by McGovern et al.. No significant differences were found when compared to measurements without detergents.

Escherichia coli 1411 = test: In vitro antibacterial activity (MIC100, two fold serial dilution, NCCLS); type: cell-based; conditions: read-out: MIC100
Procedure: (§1) All the synthesized compounds 4(a–f) and 6(a–f) were screened for their in vitro antibacterial activity against Staphylococcus aureus (NCIM-2901), Escherichia coli 1411 (standard laboratory strains) and Escherichia coli SM1411 (an acrAB deficient derivative of 1411). Minimum inhibitory concentration (MIC100) values were determined using methods recommended by National Committee for Clinical Laboratory Standards (NCCLS). Dimethyl sulfoxide (DMSO) was used as solvent control.
(§2) All the synthesized compounds 4(a–f) and 6(a–f) were screened for their in vitro antibacterial activity against Staphylococcus aureus (NCIM-2901) and Escherichia coli 1411 (standard laboratory strains) and Escherichia coli SM1411 (an acrAB deficient derivative of 1411). Minimum inhibitory concentration (MIC100) values were determined using the method recommended by National Committee for Clinical Laboratory Standards (NCCLS). In vitro antibacterial activities of the synthesized compounds 4(a–f) and 6(a–f) were tested in Nutrient Broth (NB) for Bacteria by the two fold serial dilution method. Seeded broth (broth containing microbial spores) was prepared in NB from 24 h old bacterial cultures on nutrient agar (Hi-media) at 37 ± 1 °C. The bacterial suspension was adjusted with sterile saline to a concentration of […]. The synthesized compounds and standard drug D-cycloserine were prepared by two fold serial dilutions to obtain the required concentrations. The tubes were incubated in BOD incubators at 37 ± 1 °C for bacteria. The MICs were recorded by visual observations after 24 h (for bacteria) of incubation.

[1] = system: Staphylococcus aureus (NCIM-2901); test: as above; type: cell-based; conditions: Staphylococcus aureus
Procedure: as §1, §2

[2] = system: Escherichia coli SM1411 (an acrAB deficient derivative of 1411); test: as above; type: cell-based; conditions: 24 h, read-out: MIC100
Procedure: as §1, §2

Aspergillus fumigates = test: In vitro antifungal activity (MIC100, CLSI/NCCLS); type: cell-based; conditions: A. fum., average of three readings, read-out: MIC 100
Procedure: (§3) The newly synthesized derivatives 4(a–f) and 6(a–f) were screened for their in vitro antifungal activity against different yeast and filamentous fungal pathogens. Minimum inhibitory concentration (MIC100) values for in vitro antifungal activity were determined by the methods recommended by National Committee for Clinical Laboratory Standards (NCCLS). Miconazole was used as standard drug. Dimethyl sulfoxide (DMSO) was used as solvent control.
(§4) In vitro antifungal activity was determined as per CLSI (formerly, NCCLS) guidelines. […] The medium yeast nitrogen base was dissolved in phosphate buffer pH 7 and it was autoclaved at 110 °C for 10 min. With each set a growth control without the antifungal agent and solvent control DMSO were included. The fungal strains were freshly sub cultured on to Sabouraud dextrose agar (SDA) and incubated at 25 °C for 72 h. The fungal cells were suspended in sterile distilled water and diluted to get 10^5 cells/mL. Further, ten microlitres of the standardized suspension was inoculated onto the control plates and the media incorporated with the antifungal agents. The inoculated plates were incubated at 25 °C for 48 h. The readings were taken at the end of 48 h and 72 h. The MIC was the lowest concentration of drug preventing growth of macroscopically visible colonies on drug containing plates when there was visible growth on the drug free control plates.

Aspergillus niger = test: In vitro antifungal activity (MIC100, CLSI/NCCLS); type: cell-based; conditions: A. nig., average of three readings, read-out: MIC 100
Procedure: as §3, §4

Cryptococcus neoformans = test: In vitro antifungal activity (MIC100, CLSI/NCCLS); type: cell-based; conditions: C. neo., average of three readings, read-out: MIC 100
Procedure: as §3, §4

Candida albicans = test: In vitro antifungal activity (MIC100, CLSI/NCCLS); type: cell-based; conditions: C. alb., average of three readings, read-out: MIC 100
Procedure: as §3, §4

A. flavus = test: In vitro antifungal activity (MIC100, CLSI/NCCLS); type: cell-based; conditions: Aspergillus flavus; A. fla.; average of three readings; read-out: MIC 100
Procedure: as §3, §4

Candida glabrata = test: In vitro antifungal activity (MIC100, CLSI/NCCLS); type: cell-based; conditions: Nakaseomyces glabratus; C. glab.; average of three readings; read-out: MIC 100
Procedure: as §3, §4

Fusarium oxysporum = test: In vitro antifungal activity (MIC100, CLSI/NCCLS); type: cell-based; conditions: F. oxy., average of three readings, read-out: MIC 100
Procedure: as §3, §4

[3] = NCIM2901, 24 h, read-out: MIC100, S. aureus NCIM-2901, average of three readings

Row | Structure (SMILES) | IC50 (DdlB from E.coli) [µM] | MIC (Escherichia coli 1411; Escherichia coli, 1411, 24 h) [µg/mL] | MIC [1, 3] [µg/mL] | MIC [2] [µg/mL] | MIC (Aspergillus fumigates) [µg/mL] | MIC (Aspergillus niger) [µg/mL] | MIC (Cryptococcus neoformans) [µg/mL] | MIC (Candida albicans) [µg/mL] | MIC (A. flavus) [µg/mL] | MIC (Candida glabrata) [µg/mL] | MIC (Fusarium oxysporum) [µg/mL] | melting point [°C] | MIC (Escherichia coli 1411; Escherichia coli, E. coli 1411, 24 h, average of three readings) [µg/mL] | MIC ([1]; NCIM2901, S. aureus NCIM-2901, 24 h, average of three readings, read-out: MIC100) [µg/mL]
1 | CCOC(=O)C1=C(C)NC(=O)NC1c1coc2ccccc2c1=O (stereo not shown) [Compound 4a, Ethyl 6-methyl-2-oxo-4-(4-oxo-4H-chromen-3-yl)-1,2,3,4-tetrahydropyrimidine-5-carboxylate] | 158 | 46 (≈ 140 µM) | 64 (≈ 195 µM) | 40 (≈ 122 µM) | 65 (≈ 198 µM) | 57 (≈ 174 µM) | 60 (≈ 183 µM) | > 100 | 66 (≈ 201 µM) | > 100 | 82 (≈ 250 µM) | 270 to 272 | – | –
2 | CCOC(=O)C1=C(C)NC(=S)NC1c1coc2ccccc2c1=O (stereo not shown) [Compound 4b, Ethyl 6-methyl-4-(4-oxo-4H-chromen-3-yl)-2-thioxo-1,2,3,4-tetrahydropyrimidine-5-carboxylate] | 296 | 50 (≈ 145 µM) | 68 (≈ 197 µM) | 50 (≈ 145 µM) | 60 (≈ 174 µM) | 52 (≈ 151 µM) | 55 (≈ 160 µM) | 64 (≈ 186 µM) | 66 (≈ 192 µM) | 66 (≈ 192 µM) | 58 (≈ 168 µM) | 210 to 212 | – | –
3 | CCOC(=O)C1=C(C)NC(=O)NC1c1coc2ccc(F)cc2c1=O (stereo not shown) [Compound 4c, Ethyl 4-(6-fluoro-4-oxo-4H-chromen-3-yl)-6-methyl-2-oxo-1,2,3,4-tetrahydropyrimidine-5-carboxylate] | 155 | 38 (≈ 110 µM) | 30 (≈ 86.6 µM) | 34 (≈ 98.2 µM) | 62 (≈ 179 µM) | 44 (≈ 127 µM) | 46 (≈ 133 µM) | 52 (≈ 150 µM) | 58 (≈ 167 µM) | 58 (≈ 167 µM) | 58 (≈ 167 µM) | 200 to 202 | – | –
4 | CCOC(=O)C1=C(C)NC(=O)NC1c1coc2ccc(OC)cc2c1=O (stereo not shown) [Compound 4d, Ethyl 4-(6-methoxy-4-oxo-4H-chromen-3-yl)-6-methyl-2-oxo-1,2,3,4-tetrahydropyrimidine-5-carboxylate] | 330 | 55 (≈ 153 µM) | > 200 | 54 (≈ 151 µM) | 36 (≈ 100 µM) | 20 (≈ 55.8 µM) | 24 (≈ 67 µM) | 34 (≈ 94.9 µM) | 20 (≈ 55.8 µM) | 38 (≈ 106 µM) | 36 (≈ 100 µM) | 230 to 232 | – | –
5 | CCOC(=O)C1=C(C)NC(=S)NC1c1coc2ccc(OC)cc2c1=O (stereo not shown) [Compound 4e, Ethyl 4-(6-methoxy-4-oxo-4H-chromen-3-yl)-6-methyl-2-thioxo-1,2,3,4-tetrahydropyrimidine-5-carboxylate] | 335 | 58 (≈ 155 µM) | > 200 | > 60 | 34 (≈ 90.8 µM) | 18 (≈ 48.1 µM) | 20 (≈ 53.4 µM) | 30 (≈ 80.1 µM) | 18 (≈ 48.1 µM) | 32 (≈ 85.5 µM) | 30 (≈ 80.1 µM) | 222 to 224 | – | –
6 | CCOC(=O)C1=C(C)NC(=S)NC1c1coc2ccc(F)cc2c1=O (stereo not shown) [Compound 4f, Ethyl 4-(6-fluoro-4-oxo-4H-chromen-3-yl)-6-methyl-2-thioxo-1,2,3,4-tetrahydropyrimidine-5-carboxylate] | 280 | 48 (≈ 132 µM) | 72 (≈ 199 µM) | 44 (≈ 121 µM) | 55 (≈ 152 µM) | 34 (≈ 93.8 µM) | 30 (≈ 82.8 µM) | 46 (≈ 127 µM) | 34 (≈ 93.8 µM) | 44 (≈ 121 µM) | 48 (≈ 132 µM) | 228 to 230 | – | –
7 | CC1=C(C(=O)NN)C(c2coc3ccccc3c2=O)NC(=O)N1 (stereo not shown) [Compound 6a, 6-Methyl-2-oxo-4-(4-oxo-4H-chromen-3-yl)-1,2,3,4-tetrahydropyrimidine-5-carbohydrazide] | 127 | 34 (≈ 108 µM) | 66 (≈ 210 µM) | 32 (≈ 102 µM) | 60 (≈ 191 µM) | 55 (≈ 175 µM) | 58 (≈ 185 µM) | 78 (≈ 248 µM) | 68 (≈ 216 µM) | 68 (≈ 216 µM) | 76 (≈ 242 µM) | 256 to 258 | – | –
8 | CC1=C(C(=O)NN)C(c2coc3ccccc3c2=O)NC(=S)N1 (stereo not shown) [Compound 6b, 6-Methyl-4-(4-oxo-4H-chromen-3-yl)-2-thioxo-1,2,3,4-tetrahydropyrimidine-5-carbohydrazide] | 124 | 34 (≈ 103 µM) | 76 (≈ 230 µM) | 34 (≈ 103 µM) | 58 (≈ 176 µM) | 48 (≈ 145 µM) | 50 (≈ 151 µM) | 64 (≈ 194 µM) | 60 (≈ 182 µM) | 60 (≈ 182 µM) | 54 (≈ 163 µM) | 198 to 200 | – | –
9 | N[C@@H]1CON=C1O [D-Cycloserine, reference compound] | 276 | – | – | 16 (≈ 157 µM) | – | – | – | – | – | – | – | – | 16 (≈ 157 µM) | 32 (≈ 313 µM)

Reference: article PMC6017654, “Ionic Liquid-Promoted Synthesis of Novel Chromone-Pyrimidine Coupled Derivatives, Antimicrobial Analysis, Enzyme Assay, Docking Study and Toxicity Study” (Molecules : A Journal of Synthetic Chemistry and Natural …, 2018)
